How the values were obtained:
[1] = system: diabetic nephropathy-induced animals; experiment: Diabetic nephropathy model in ZDF rats (Experimental Example 2); format: in vivo, Zucker diabetic fatty (ZDF) rats; conditions: 250 mg/kg oral
From the text: When the blood glucose level is elevated, glucose in the blood partially binds to hemoglobin in red blood cells, producing glycosylated hemoglobin (termed HbAlc). When glycosylated hemoglobin is formed, the corresponding red blood cells will retain HbAlc until the red blood cells complete their lives to be destroyed. […] The HbAlc reflect a blood glucose value over a relatively long period of time, so the measurement of the HbAlc level may be a useful indicator of how well diabetes has been therapeutically controlled over the past several months.
An increase in the rate of excretion of albumin in the urine is the most preceding clinical finding in diabetic nephropathy. Therefore, an increased level of urine albumin is an indicator of renal or hepatic diseases.
8-week-old male Zucker diabetic fatty (ZDF) rats (Charles River Laboratory) were divided into four groups as given in Table 2 below: Vehicle, MB660 (250 mg/kg), Pair-fed, and Rosi (6 mg/kg). Animals were orally given test samples.
Diabetic nephropathy model animals were fed with a low-fat feed (11.9 kcal % fat, 5053, Labdiet). Animals with a blood glucose level of 300 mg/dl and a body weight (BW) of more than 300 g were selected and treated with test samples for 4 and 8 weeks, respectively (total 12 and 16 weeks old). In-vivo changes in glycosylated hemoglobin (HbAlc), urine albumin and urine protein (1,000× urine albumin/urine creatinine) associated with kidney diseases were observed. Albumin was measured using an immunoturbidimetric assay, and creatinine was measured using a Jaffe rate method.

[2] = system: acute renal failure-induced animals; experiment: Acute renal failure induced by ischaemia/reperfusion injury in rats (Experimental Example 1); format: in vivo, Sprague-Dawley rats
From the text: Creatine is non-enzymatically converted into creatinine that is a waste product of muscle energy metabolism. Creatinine is a waste by-product and is therefore filtered by the kidney, but not reabsorbed. Since the muscle mass is generally maintained at a constant level and is less susceptible to other organs except for the kidney, a serum creatinine level is a good marker of the glomerular filtration rate. A higher creatinine concentration reflects more significant impairment of renal function. For example, a two-fold increase of the creatinine level represents a 50% decrease of the glomerular filtration rate.
Accumulation of toxic ammonia in the body is prevented in a manner that ammonia is produced by deamination of amino acids during a protein metabolic process and is then converted into urea in the liver. When excretory function of the kidney is compromised, the blood urea nitrogen level is elevated. Therefore, measurement of BUN is an important indicator to examine whether the kidney is normally functional or not. When the BUN level is elevated over a normal value, the subject is suspected to have acute nephritis, chronic nephritis, prostate hyperplasia or the like. When the BUN level is dropped below a normal value, the subject is suspected to have diabetes insipidus, muscular dystrophy or the like.
Among compounds of Formula 1, effects of 7,8-dihydro-2,2-dimethyl-2H-naphtho(2,3-b)dihydropyran-7,8-dione (hereinafter, referred to as “compound of Example 1”) on acute renal failure were examined. For this purpose, 6-week-old male Sprague-Dawley rats, weighing 200 to 220 g (Japan SLC, Inc., Japan) were divided into two groups as given in Table 1 below: a vehicle-treated control group and a group received the compound of Example 1 (200 mg/kg). Animals were given test samples by the oral route. […]
Following the IR induction, 0.2 mL of serum was sampled from each animal on +1 day, +3 day and +5 day, respectively. Creatinine and BUN (blood urea nitrogen) levels were measured with an automatic biochemical analyzer (HITACHI, 7020).

CC1(C)CCC2=C(O1)c1ccccc1C(=O)C2=O [Example 1, 7,8-dihydro-2,2-dimethyl-2H-naphtho(2,3-b)dihydropyran-7,8-dione]
glycosylated hemoglobin (HbAlc) ([1]; treated 4 and 8 weeks (FIG. 3)): significantly low | urine albumin level ([1]; treated 4 and 8 weeks, compared with Rosiglitazone 6 mg/kg group (FIG. 5)): lower | daily urine protein level (1000× urine albumin/urine creatinine) ([1]; treated 4 and 8 weeks, compared with Rosiglitazone 6 mg/kg group (FIG. 6)): lower | left kidney weight ([1]; treated 4 and 8 weeks, vs diabetic nephropathy-induced control group (FIG. 4)): significant decrease | serum creatinine level ([2]; 200 mg/kg oral for two weeks before IR induction, serum on +1, +3, +5 day, vs control group, most prominent after 3 days of reperfusion (FIG. 1)): significantly decreased | serum BUN (blood urea nitrogen) level ([2]; 200 mg/kg oral for two weeks before IR induction, serum on +1, +3, +5 day, vs control group, most remarkable after 3 days of reperfusion (FIG. 2)): significant reduction | glomerular filtration rate ([2]; 200 mg/kg oral, inferred from serum creatinine and BUN results): elevation

From patent publication US20130302422A1, “PHARMACEUTICAL COMPOSITION FOR TREATMENT AND PREVENTION OF KIDNEY DISEASES” (KT & G CORPORATION, priority 2007, published 2013)
